Measured values as given in US9332764B2, “Aqueous composition for inactivating sporulated and/or non-sporulated coccidian parasites” (Ecolab USA Inc., priority 2007, dated 2016).
“Also recorded” adds a separate entry of the source.

How the values were obtained:
[1] = system: sporulated and/or non-sporulated Coccidian parasites; conditions: preferably around 800 ppm; cited from earlier work
[2] = system: sporulated oocysts of Eimeria papillata; experiment: Infection of mice with treated sporulated oocysts, excretion of oocysts in excrements; assay type: in vivo, Eimeria papillata in Balb/C-mice; parameters: key to excretion 4 dpi / excretion 5 dpi / excretion 6 dpi / excretion 7 dpi: +++: massive excretion of oocysts; ++: excretion of many oocysts; +: excretion of few oocysts; −: no oocysts detectable; conditions: for excretion 4 dpi / excretion 5 dpi / excretion 6 dpi / excretion 7 dpi: 60 min; for excretion 4 dpi: 4 days after infection; for excretion 5 dpi: 5 days after infection; for excretion 6 dpi: 6 days after infection; for excretion 7 dpi: 7 days after infection
Method: (§1) For the experiments 20 g female Balb/C-mice were used. […] The flotation medium was prepared containing 124.5 g NaCl and 435.8 g saccharide which was diluted with water and filled up to 1 litre. Fresh non-sporulated oocysts were prepared. Subsequently the Balb/C-mice were infected with 20,000 sporulated oocysts. From the fourth day after infection, fresh mouse excrement is collected and isolated by flotation. Residual flotation medium is removed by washing three times with clean water.
Sporulated infectious oocysts were incubated at 25° C. for one week.
(§2) A chlorine dioxide solution is prepared by mixing a solution containing sodium chlorite and an acidic solution. By reaction chlorine dioxide is produced. The solution comprises 120 ppm chorine dioxide. By further dilution, chlorine dioxide solutions of 40, 20, 10, 4, 1, and 0.5 ppm are produced which are immediately used for the experiments.
A further series of experiments was performed in order to evaluate the inactivation pattern of sporulated oocysts. […] After that the oocyst suspensions were washed with water for three times and 20,000 oocysts were orally administered to a mouse. Per concentration one mouse was used. In addition two mice were treated, each with 20,000 non-treated, sporulated oocysts for control purposes. From the fourth day after infection samples of the excrements of the mice were taken daily and the presence of oocysts of Eimeria papillata was examined. (see table 3) […]

[3] = system: non-sporulated oocysts of Eimeria papillata; experiment: Incubation of fresh non-sporulated oocysts, then check for sporulation after one week at 25° C.; assay type: cell-based; conditions: incubation 60 min; for result (sporulation): room temperature, no surfactant
Method: as §1, §2
Oocysts of Eimeria papillata were filtered from fresh mice excrements and incubated for 60 min with freshly produced chlorine dioxide solution at concentrations of 40, 20, 10, 4, 1, 0.5 ppm at room temperature. After 60 min incubation time the oocyst suspensions were washed with water and cultured for sporulation in 1 ml water. The probes were incubated for one week at 25° C. As control a non-treated, non-sporulated oocyst sample was used which was also incubated for one week at 25° C. After seven days it was checked if a sporulation occurred. (see table 1)
In the same way experiments were carried out with the aqueous composition according to the invention comprising chlorine dioxide and as an anionic surfactant Dofax 2A1 (Dow Chemicals) which is a mixture of a disodium oxybis(dodecyl benzenesulfonate) and a dodecyl(sulfophenoxy)disodium salt of benzene sulfonic acid. The composition comprises between 0.5 to 25 ppm chlorine dioxide and 0.2 wt. % of the anionic surfactant. (see table 2)

[4] = system: sporulated and/or non-sporulated Coccidian parasites; experiment: Inactivation of Coccidian parasites by chlorine dioxide solutions, general statements; conditions: chlorine dioxide alone, concentrations below 120 ppm
Source text: Therefore the disadvantage of the method described in JP 2004-210726 is that high concentrations of chlorine dioxide have to be used in order to sufficiently inactivate the Coccidian parasites. The inventors of the present invention have performed experiments to lower the limit of the concentration of chlorine dioxide in a solution which is still effective, inactivating Coccidian parasites.
In addition the inventors have also investigated whether combinations of chlorine dioxide with other surfactants like for example alkyl sulfonates, amine oxides, ethoxylated polyalcohols, quaternary ammonium compounds, lauryl hydroxy sulfane, and alkyl ether sulfates have an effect in combination with lower concentrations of chlorine dioxide.

Eimeria oocysts = conditions: cited from earlier work
[5] = oocysts treated with ClO2 4 ppm
[6] = oocysts treated with ClO2 10 ppm
[7] = oocysts treated with ClO2 20 ppm
[8] = oocysts treated with ClO2 40 ppm
[9] = oocysts treated with ClO2 120 ppm
[10] = oocysts treated with ClO2 240 ppm

Compound: [O][Cl+][O-] [chlorine dioxide solution, chlorine dioxide]
- chlorine dioxide concentration known to completely inactivate sporulated and/or non-sporulated Coccidian parasites [1]: above 200 ppm
- excretion of oocysts of Eimeria papillata in Balb/C-mice ([2]; chlorine dioxide between 4 and 40 ppm, incubation 60 min): cannot be avoided
- detectable oocysts ([2]; concentrations of 120 ppm and 240 ppm): no detectable oocysts
- excretion 4 dpi [2, 5]: ++
- excretion 5 dpi [2, 5]: ++
- excretion 6 dpi [2, 5]: ++
- excretion 7 dpi [2, 5]: +
- excretion 4 dpi [2, 6]: ++
- excretion 5 dpi [2, 6]: ++
- excretion 6 dpi [2, 6]: ++
- excretion 7 dpi [2, 6]: +
- excretion 4 dpi [2, 7]: ++
- excretion 5 dpi [2, 7]: ++
- excretion 6 dpi [2, 7]: +
- excretion 7 dpi [2, 7]: +
- excretion 4 dpi [2, 8]: +
- excretion 5 dpi [2, 8]: +
- excretion 6 dpi [2, 8]: +
- excretion 7 dpi [2, 8]: +
- excretion 4 dpi [2, 9]: −
- excretion 5 dpi [2, 9]: −
- excretion 6 dpi [2, 9]: −
- excretion 7 dpi [2, 9]: −
- excretion 4 dpi [2, 10]: −
- excretion 5 dpi [2, 10]: −
- excretion 6 dpi [2, 10]: −
- excretion 7 dpi [2, 10]: −
- result (sporulation) ([3]; ClO2 0.5 ppm): complete
- result (sporulation) ([3]; ClO2 1 ppm): complete
- result (sporulation) ([3]; ClO2 4 ppm): complete
- result (sporulation) ([3]; ClO2 10 ppm): complete
- result (sporulation) ([3]; ClO2 20 ppm): complete
- result (sporulation) ([3]; ClO2 40 ppm): partial
- sporulation ([3]; chlorine dioxide only, concentrations below 40 ppm): complete or partial sporulation
- inactivation / eradication of coccoid organisms [4]: ineffective; also recorded: will not inactivate

Compound: O=S(=O)([O-])[O-].[Cu+2] [copper sulfate]
- effectiveness for eradication of coccoid oocysts (Eimeria oocysts): ineffective

Compound: C=O [formalin]
- effectiveness for eradication of coccoid oocysts (Eimeria oocysts): ineffective

Compound: O=CCCCC=O [glutaraldehyde]
- effectiveness for eradication of coccoid oocysts (Eimeria oocysts): ineffective

Compound: CC(=O)OO [peracetic acid]
- effectiveness for eradication of coccoid oocysts (Eimeria oocysts): ineffective

Compound: [K+].[K+].[O]=[Cr](=[O])([O-])[O][Cr](=[O])(=[O])[O-] [potassium dichromate]
- effectiveness for eradication of coccoid oocysts (Eimeria oocysts): ineffective

Compound: [K+].[OH-] [potassium hydroxide]
- effectiveness for eradication of coccoid oocysts (Eimeria oocysts): ineffective

Compound: [I-].[K+] [potassium iodide]
- effectiveness for eradication of coccoid oocysts (Eimeria oocysts): ineffective

Compound: OCl [sodium hypochlorite]
- effectiveness for eradication of coccoid oocysts (Eimeria oocysts): ineffective

Compound: O=S(=O)(O)O [sulfuric acid]
- effectiveness for eradication of coccoid oocysts (Eimeria oocysts): ineffective

Compound: benzalkonium chloride
- effectiveness for eradication of coccoid oocysts (Eimeria oocysts): ineffective

Compound: cresylic acid
- effectiveness for eradication of coccoid oocysts (Eimeria oocysts): ineffective
